The text below walks through data of patent US20260250318A1, “COMPOSITIONS AND METHODS FOR CROSSING THE BLOOD BRAIN BARRIER” (VOYAGER THERAPEUTICS, INC., priority 2022, published 2026).

Common to all, as to settings: synthetic library passage 3, intravenous, relative to wild-type AAV9
Experiment [1] concerns brain, spinal cord, and DRG of the NHPs. In words: NGS fold enrichment of synthetic library (passage 3) in NHPs, first cross-species screen. The experiment is classed as in vivo, cynomolgus macaques (Macaca fascicularis). In short, it runs like this:
(§1)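 Synthetic capsid library (passage 3) was given intravenously […] to NHPs aged 2-4 years and to BALB/c and C57Bl/6 mice (n=3 each, 6-8 weeks). After about 28 days in vivo, tissue RNA was RT-PCR amplified and NGS-sequenced; values are fold enrichment per variant relative to wild-type AAV9.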

The test system of experiment [2] is brain. In words: NGS fold enrichment of synthetic library (passage 3) in BALB/c mice, first cross-species screen. The experiment is classed as in vivo. An outline of the steps: as §1
In experiment [3] the test system is brain. Briefly: NGS fold enrichment of synthetic library (passage 3) in C57Bl/6 mice, first cross-species screen. The experiment is classed as in vivo. In short, it runs like this:
as §1

The mark [4] stands for this setting: RNA from spinal cord of NHPs, NGS.
The mark [5] stands for this setting: RNA from brain of BALB/c mice, NGS.
Where [6] appears, read: RNA from brain of C57Bl/6 mice, NGS.

Take GRGGSMAETQNQQT: the “Fold enrichment over AAV9 in the brain of NHPs” value in experiment [1] (RNA NGS, brain of NHPs) is 1.024 fold. In addition, the “Fold enrichment over AAV9 in the spinal cord of NHPs” value in experiment [1] (RNA NGS, spinal cord of NHPs) was determined as 2.853 fold. The “Fold enrichment over AAV9 in the brain of Mice (BALB/c)” value (from here on “Fold enrichment over AAV9 … (BALB/c)”) in experiment [2] (RNA NGS, brain of BALB/c mice) is reported as 0.669 fold. For the same sequence, in experiment [3] (RNA NGS, brain of C57Bl/6 mice), the “Fold enrichment over AAV9 in the brain of Mice (C57Bl/6)” value (shortened to “Fold enrichment over AAV9 … (C57Bl/6)”) was found to be 0.799 fold.

In the case of GSGYVITGSQNQQT, in experiment [1] (RNA from brain of NHPs, NGS), the “Fold enrichment over AAV9 in the brain of NHPs” value is listed as 1.125 fold. Moreover, the “Fold enrichment over AAV9 in the spinal cord of NHPs” value in experiment [1] (setting [4]) is recorded as 6.271 fold. Moreover, in experiment [2] (setting [5]), the “Fold enrichment over AAV9 … (BALB/c)” value is 0.248 fold. The “Fold enrichment over AAV9 … (C57Bl/6)” value in experiment [3] (setting [6]) is reported as 0.971 fold.

GSGQNQQSTGTSRT: the “Fold enrichment over AAV9 in the brain of NHPs” value in experiment [1] (RNA NGS, brain of NHPs) turned out to be 1.103 fold. The “Fold enrichment over AAV9 in the spinal cord of NHPs” value in experiment [1] (RNA NGS, spinal cord of NHPs) is reported as 4.054 fold. Also, the “Fold enrichment over AAV9 … (BALB/c)” value in experiment [2] (RNA NGS, brain of BALB/c mice) was 0.935 fold. Further, the “Fold enrichment over AAV9 … (C57Bl/6)” value in experiment [3] (RNA NGS, brain of C57Bl/6 mice) worked out at 1.209 fold.

With GSGQNQQTPGAHKT, the “Fold enrichment over AAV9 in the brain of NHPs” value in experiment [1] (RNA NGS, brain of NHPs) is recorded as 1.105 fold. In addition, in experiment [1] (RNA NGS, spinal cord of NHPs), the “Fold enrichment over AAV9 in the spinal cord of NHPs” value came to 3.827 fold. Besides, the “Fold enrichment over AAV9 … (BALB/c)” value in experiment [2] (RNA NGS, brain of BALB/c mice) was determined as 0.277 fold. Moreover, the “Fold enrichment over AAV9 … (C57Bl/6)” value in experiment [3] (RNA NGS, brain of C57Bl/6 mice) is 0.957 fold.

As for GGAGSAHSGQNQQT, the “Fold enrichment over AAV9 in the brain of NHPs” value in experiment [1] (RNA NGS, brain of NHPs) was found to be 1.003 fold. Further, in experiment [1] (RNA NGS, spinal cord of NHPs), the “Fold enrichment over AAV9 in the spinal cord of NHPs” value was found to be 6.108 fold. For the same sequence, in experiment [2] (RNA NGS, brain of BALB/c mice), the “Fold enrichment over AAV9 … (BALB/c)” value was determined as 1.092 fold. Also, the “Fold enrichment over AAV9 … (C57Bl/6)” value in experiment [3] (RNA NGS, brain of C57Bl/6 mice) is on record as 0.474 fold.

With GSGKGHSAGQNQQT, the “Fold enrichment over AAV9 in the brain of NHPs” value in experiment [1] (RNA NGS, brain of NHPs) is recorded as 1.453 fold. In experiment [1] (RNA NGS, spinal cord of NHPs), the “Fold enrichment over AAV9 in the spinal cord of NHPs” value was determined as 0.936 fold. Further, the “Fold enrichment over AAV9 … (BALB/c)” value in experiment [2] (RNA NGS, brain of BALB/c mice) is 1.173 fold. Also, the “Fold enrichment over AAV9 … (C57Bl/6)” value in experiment [3] (RNA NGS, brain of C57Bl/6 mice) stood at 1.035 fold.

As to GSGQNQQQRDGTLT, in experiment [1] (RNA from brain of NHPs, NGS), the “Fold enrichment over AAV9 in the brain of NHPs” value was determined as 1.152 fold. In experiment [1] (setting [4]), the “Fold enrichment over AAV9 in the spinal cord of NHPs” value is reported as 0.387 fold. In addition, in experiment [2] (setting [5]), the “Fold enrichment over AAV9 … (BALB/c)” value is 0.730 fold. The “Fold enrichment over AAV9 … (C57Bl/6)” value in experiment [3] (setting [6]) was found to be 0.760 fold.

With GSGQSTLKRINQQT, the “Fold enrichment over AAV9 in the brain of NHPs” value in experiment [1] (RNA from brain of NHPs, NGS) stood at 1.168 fold. Moreover, the “Fold enrichment over AAV9 in the spinal cord of NHPs” value in experiment [1] (setting [4]) stood at 13.442 fold. Besides, in experiment [2] (setting [5]), the “Fold enrichment over AAV9 … (BALB/c)” value is reported as 1.184 fold. Further, in experiment [3] (setting [6]), the “Fold enrichment over AAV9 … (C57Bl/6)” value is 0.534 fold.

As to GLGSKNPSGQNQQT, in experiment [1] (RNA from brain of NHPs, NGS), the “Fold enrichment over AAV9 in the brain of NHPs” value was 1.147 fold. For the same sequence, the “Fold enrichment over AAV9 in the spinal cord of NHPs” value in experiment [1] (setting [4]) was 1.629 fold. In addition, the “Fold enrichment over AAV9 … (BALB/c)” value in experiment [2] (setting [5]) came out at 0.424 fold. For the same sequence, the “Fold enrichment over AAV9 … (C57Bl/6)” value in experiment [3] (setting [6]) amounted to 1.184 fold.

Consider GNGQNQQHSILHGT, for which, in experiment [1] (RNA NGS, brain of NHPs), the “Fold enrichment over AAV9 in the brain of NHPs” value turned out to be 1.435 fold. Further, the “Fold enrichment over AAV9 in the spinal cord of NHPs” value in experiment [1] (RNA NGS, spinal cord of NHPs) came out at 0.000 fold. Moreover, the “Fold enrichment over AAV9 … (BALB/c)” value in experiment [2] (RNA NGS, brain of BALB/c mice) came out at 0.415 fold. The “Fold enrichment over AAV9 … (C57Bl/6)” value in experiment [3] (RNA NGS, brain of C57Bl/6 mice) turned out to be 0.777 fold.

On to GSGQMSDVHGNQQT, for which the “Fold enrichment over AAV9 in the brain of NHPs” value in experiment [1] (RNA from brain of NHPs, NGS) stood at 1.346 fold. In experiment [1] (setting [4]), the “Fold enrichment over AAV9 in the spinal cord of NHPs” value was 7.172 fold. Besides, the “Fold enrichment over AAV9 … (BALB/c)” value in experiment [2] (setting [5]) is 0.548 fold. For the same sequence, the “Fold enrichment over AAV9 … (C57Bl/6)” value in experiment [3] (setting [6]) came to 0.408 fold.

For the sequence GSLLISTSGQNQQT, in experiment [1] (RNA NGS, brain of NHPs), the “Fold enrichment over AAV9 in the brain of NHPs” value worked out at 1.919 fold. Further, in experiment [1] (RNA NGS, spinal cord of NHPs), the “Fold enrichment over AAV9 in the spinal cord of NHPs” value was determined as 5.763 fold. Besides, the “Fold enrichment over AAV9 … (BALB/c)” value in experiment [2] (RNA NGS, brain of BALB/c mice) was 0.808 fold. Besides, the “Fold enrichment over AAV9 … (C57Bl/6)” value in experiment [3] (RNA NGS, brain of C57Bl/6 mice) was determined as 1.488 fold.

For the sequence GSGHLPQSAQNQQT, the “Fold enrichment over AAV9 in the brain of NHPs” value in experiment [1] (RNA NGS, brain of NHPs) was 2.803 fold. For the same sequence, the “Fold enrichment over AAV9 in the spinal cord of NHPs” value in experiment [1] (RNA NGS, spinal cord of NHPs) was 7.828 fold. Also, in experiment [2] (RNA NGS, brain of BALB/c mice), the “Fold enrichment over AAV9 … (BALB/c)” value was determined as 0.496 fold. The “Fold enrichment over AAV9 … (C57Bl/6)” value in experiment [3] (RNA NGS, brain of C57Bl/6 mice) is 0.826 fold.

For GSRSTGPSGQNQQT, the “Fold enrichment over AAV9 in the brain of NHPs” value in experiment [1] (RNA NGS, brain of NHPs) turned out to be 1.819 fold. For the same sequence, the “Fold enrichment over AAV9 in the spinal cord of NHPs” value in experiment [1] (RNA NGS, spinal cord of NHPs) worked out at 2.479 fold. The “Fold enrichment over AAV9 … (BALB/c)” value in experiment [2] (RNA NGS, brain of BALB/c mice) came out at 0.466 fold. Moreover, in experiment [3] (RNA NGS, brain of C57Bl/6 mice), the “Fold enrichment over AAV9 … (C57Bl/6)” value was 0.440 fold.

Consider GSGQNARLKDNQQT, for which the “Fold enrichment over AAV9 in the brain of NHPs” value in experiment [1] (RNA from brain of NHPs, NGS) turned out to be 1.354 fold. Moreover, the “Fold enrichment over AAV9 in the spinal cord of NHPs” value in experiment [1] (setting [4]) was determined as 2.395 fold. The “Fold enrichment over AAV9 … (BALB/c)” value in experiment [2] (setting [5]) is listed as 0.938 fold. Also, the “Fold enrichment over AAV9 … (C57Bl/6)” value in experiment [3] (setting [6]) was determined as 0.580 fold.

With GSGDTLHMLQNQQT, the “Fold enrichment over AAV9 in the brain of NHPs” value in experiment [1] (RNA NGS, brain of NHPs) was determined as 3.317 fold. Further, the “Fold enrichment over AAV9 in the spinal cord of NHPs” value in experiment [1] (RNA NGS, spinal cord of NHPs) is reported as 1.174 fold. In addition, the “Fold enrichment over AAV9 … (BALB/c)” value in experiment [2] (RNA NGS, brain of BALB/c mice) is 0.482 fold. Further, the “Fold enrichment over AAV9 … (C57Bl/6)” value in experiment [3] (RNA NGS, brain of C57Bl/6 mice) was 0.393 fold.
